Results published in patent US20060069132A1, “Azolecarboxamide herbicides” (priority 2004, published 2006).

What was measured:
barnyardgrass [1] = experiment: Test B pre-/postemergence herbicide test; type: in vivo, Echinochloa crus-galli; details: for Plant response rating (0 to 100 scale), Barnyardgrass: 0 is no effect, 100 is complete control, preemergence; for Barnyardgrass plant response rating: Postemergence, scale 0 (no effect) to 100 (complete control)
Procedure, shortened: (§1)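 Pre: seeds sown, then sprayed. Post: 1–4-leaf plants (2–18 cm) sprayed at the same time. Paddy: flooded, treated at 2-leaf stage. Formulation: non-phytotoxic solvent with surfactant. Greenhouse 13–15 days; visual 0–100 score relative to controls.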

Surinam grass = experiment: Test B pre-/postemergence herbicide test; type: in vivo, Urochloa decumbens; details: for Plant response rating (0 to 100 scale), Surinam Grass: 0 is no effect, 100 is complete control, preemergence
Procedure, shortened: as §1

cocklebur = experiment: Test B pre-/postemergence herbicide test; type: in vivo, Xanthium strumarium; details: for Plant response rating (0 to 100 scale), Cocklebur: 0 is no effect, 100 is complete control, preemergence
Procedure, shortened: as §1

corn = experiment: Test B pre-/postemergence herbicide test; type: in vivo, Zea mays; details: for Plant response rating (0 to 100 scale), Corn: 0 is no effect, 100 is complete control, preemergence
Procedure, shortened: as §1

large crabgrass = experiment: Test B pre-/postemergence herbicide test; type: in vivo, Digitaria sanguinalis; details: for Plant response rating (0 to 100 scale), Crabgrass, Large: 0 is no effect, 100 is complete control, preemergence
Procedure, shortened: as §1

giant foxtail = experiment: Test B pre-/postemergence herbicide test; type: in vivo, Setaria faberi; details: for Plant response rating (0 to 100 scale), Foxtail, Giant: 0 is no effect, 100 is complete control, preemergence
Procedure, shortened: as §1

lambsquarters = experiment: Test B pre-/postemergence herbicide test; type: in vivo, Chenopodium album; details: for Plant response rating (0 to 100 scale), Lambsquarters: 0 is no effect, 100 is complete control, preemergence
Procedure, shortened: as §1

morningglory = experiment: Test B pre-/postemergence herbicide test; type: in vivo, Ipomoea coccinea; details: for Plant response rating (0 to 100 scale), Morningglory: 0 is no effect, 100 is complete control, preemergence
Procedure, shortened: as §1

velvetleaf = experiment: Test B pre-/postemergence herbicide test; type: in vivo, Abutilon theophrasti; details: for Plant response rating (0 to 100 scale), Velvetleaf: 0 is no effect, 100 is complete control, preemergence
Procedure, shortened: as §1

blackgrass = experiment: Test B postemergence herbicide test; type: in vivo, Alopecurus myosuroides
Procedure, shortened: (§2)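 Read-out: visual comparison with controls, scored 0 to 100, where 100 means complete control and 0 no effect. Formulated chemicals were applied postemergence to plants 2–18 cm tall (1- to 4-leaf), or to flooded-paddy plants at the 2-leaf stage, then held 13 to 15 days under glass.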

wheat = experiment: Test B postemergence herbicide test; type: in vivo, Triticum aestivum; parameters: key to Wheat plant response rating: 0 = no effect, 100 = complete control
Procedure, shortened: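 Each value is a visual 0–100 response rating taken against controls 13 to 15 days after treatment in the greenhouse. Plants received formulated chemical postemergence at the 1- to 4-leaf stage or, in flooded paddy, at the 2-leaf stage.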

rice = experiment: Test B flooded paddy test; type: in vivo, Oryza sativa; details: 1000 g ai/ha, scale 0 to 100 (0 no effect, 100 complete control)
Procedure, shortened: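 Plants grow to 1- to 4-leaf stage (2–18 cm) for postemergence spraying, or to 2-leaf stage for the paddy test. Formulated compound is applied. Greenhouse holding lasts 13–15 days. Response is scored visually relative to controls, 0 no effect to 100 complete control; a dash means no result.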

[2] = tested on: small flower umbrella sedge; experiment: Test B flooded paddy test; type: in vivo, Cyperus difformis; details: 1000 g ai/ha, scale 0 to 100 (0 no effect, 100 complete control)
Procedure, shortened: as §2

ducksalad = experiment: Test B flooded paddy test; type: in vivo, Heteranthera limosa; details: 1000 g ai/ha, scale 0 to 100 (0 no effect, 100 complete control)
Procedure, shortened: as §2

barnyardgrass [3] = experiment: Test B flooded paddy test; type: in vivo, Echinochloa crus-galli; details: 1000 g ai/ha, scale 0 to 100 (0 no effect, 100 complete control)
Procedure, shortened: as §2

[4] = Postemergence, 500 g ai/ha, scale 0 (no effect) to 100 (complete control)
[5] = postemergence, 125 g ai/ha, scale 0 to 100
[6] = 500 g ai/ha, scale 0 to 100, 0 no effect, 100 complete control, preemergence

| Compound | Plant response rating (0 to 100 scale), Barnyardgrass (barnyardgrass [1]; 125 g ai/ha) | Barnyardgrass plant response rating (barnyardgrass [1]; 125 g ai/ha) | Barnyardgrass plant response rating (barnyardgrass [1]; 500 g ai/ha) | Plant response rating (0 to 100 scale), Surinam Grass (Surinam grass; 125 g ai/ha) | Surinam Grass plant response rating (Surinam grass; [4]) | Surinam Grass plant response rating (Surinam grass; [5]) | Plant response rating (0 to 100 scale), Cocklebur (cocklebur; 125 g ai/ha) | Cocklebur plant response rating (cocklebur; [4]) | Cocklebur plant response rating (cocklebur; [5]) | Plant response rating (0 to 100 scale), Corn (corn; 125 g ai/ha) | Corn plant response rating (corn; [4]) | Corn plant response rating (corn; [5]) | Plant response rating (0 to 100 scale), Crabgrass, Large (large crabgrass; 125 g ai/ha) | Crabgrass, Large plant response rating (large crabgrass; [4]) | Crabgrass, Large plant response rating (large crabgrass; [5]) | Plant response rating (0 to 100 scale), Foxtail, Giant (giant foxtail; 125 g ai/ha) | Foxtail, Giant plant response rating (giant foxtail; [4]) | Foxtail, Giant plant response rating (giant foxtail; [5]) | Plant response rating (0 to 100 scale), Lambsquarters (lambsquarters; 125 g ai/ha) | Lambsquarters plant response rating (lambsquarters; [4]) | other results |
| --- | --- | --- | --- | --- | --- | --- | --- | --- | --- | --- | --- | --- | --- | --- | --- | --- | --- | --- | --- | --- | --- |
| C#CCOc1cccc(NC(=O)c2cc(C(C)(C)C)nn2CC)c1 [Compound 411] | 60 | 0 | 30 | 10 | 10 | 0 | 0 | 60 | 0 | 0 | 10 | 10 | 80 | 30 | 0 | 10 | 30 | 20 | 50 | 90 | Lambsquarters plant response rating (lambsquarters; [5]): 20; Plant response rating (0 to 100 scale), Morningglory (morningglory; 125 g ai/ha): 0; Morningglory plant response rating (morningglory; [4]): 0; Morningglory plant response rating (morningglory; [5]): 0; Plant response rating (0 to 100 scale), Velvetleaf (velvetleaf; 125 g ai/ha): 0; Velvetleaf plant response rating (velvetleaf; [4]): 10; Velvetleaf plant response rating (velvetleaf; [5]): 0; Blackgrass plant response rating (blackgrass; [4]): 60; Blackgrass plant response rating (blackgrass; [5]): 40; Wheat plant response rating (wheat; [6]): 60; Wheat plant response rating (wheat; [4]): 30; Wheat plant response rating (wheat; [5]): 20; Rice plant response rating (rice): 50; Sedge, Umbrella plant response rating [2]: 80; Ducksalad plant response rating (ducksalad): 80; Barnyardgrass plant response rating (barnyardgrass [3]): 50 |
| C=CCOc1cccc(NC(=O)c2cc(C(C)(C)C)nn2CC)c1 [Compound 412] | 40 | 0 | 0 | 0 | 30 | 0 | 0 | 30 | 0 | 0 | 0 | 0 | 50 | 30 | 0 | 30 | 30 | 30 | 0 | 100 | Lambsquarters plant response rating (lambsquarters; [5]): 60; Plant response rating (0 to 100 scale), Morningglory (morningglory; 125 g ai/ha): 0; Morningglory plant response rating (morningglory; [4]): 0; Morningglory plant response rating (morningglory; [5]): 0; Plant response rating (0 to 100 scale), Velvetleaf (velvetleaf; 125 g ai/ha): 0; Velvetleaf plant response rating (velvetleaf; [4]): 10; Velvetleaf plant response rating (velvetleaf; [5]): 0; Blackgrass plant response rating (blackgrass; [4]): 40; Blackgrass plant response rating (blackgrass; [5]): 40; Wheat plant response rating (wheat; [6]): 20; Wheat plant response rating (wheat; [4]): 20; Wheat plant response rating (wheat; [5]): 10; Rice plant response rating (rice): 40; Sedge, Umbrella plant response rating [2]: 90; Ducksalad plant response rating (ducksalad): 80; Barnyardgrass plant response rating (barnyardgrass [3]): 40 |
| CCc1nn(C(C)(C)C)nc1C(=O)Nc1cccc(C(=O)NC2CC2)c1 [Compound 417] | 80 | 10 | 20 | 80 | 30 | 10 | 0 | 40 | 20 | 40 | 30 | 10 | 100 | 40 | 20 | 70 | 40 | 20 | 90 | 80 | Lambsquarters plant response rating (lambsquarters; [5]): 70; Plant response rating (0 to 100 scale), Morningglory (morningglory; 125 g ai/ha): 0; Morningglory plant response rating (morningglory; [4]): 60; Morningglory plant response rating (morningglory; [5]): 50; Plant response rating (0 to 100 scale), Velvetleaf (velvetleaf; 125 g ai/ha): 50; Velvetleaf plant response rating (velvetleaf; [4]): 40; Velvetleaf plant response rating (velvetleaf; [5]): 20; Blackgrass plant response rating (blackgrass; [4]): 40; Blackgrass plant response rating (blackgrass; [5]): 10; Wheat plant response rating (wheat; [6]): 90; Wheat plant response rating (wheat; [4]): 20; Wheat plant response rating (wheat; [5]): 10; Rice plant response rating (rice): 70; Sedge, Umbrella plant response rating [2]: 70; Ducksalad plant response rating (ducksalad): 80; Barnyardgrass plant response rating (barnyardgrass [3]): 70 |
| CCN(CC)C(=O)c1cccc(NC(=O)c2nn(C(C)(C)C)nc2C)c1 [Compound 418] | 70 | 20 | 20 | 90 | 20 | 20 | 0 | 30 | 20 | 10 | 20 | 20 | 100 | 30 | 20 | 80 | 40 | 20 | 100 | 90 | Lambsquarters plant response rating (lambsquarters; [5]): 60; Plant response rating (0 to 100 scale), Morningglory (morningglory; 125 g ai/ha): 40; Morningglory plant response rating (morningglory; [4]): 80; Morningglory plant response rating (morningglory; [5]): 80; Plant response rating (0 to 100 scale), Velvetleaf (velvetleaf; 125 g ai/ha): 50; Velvetleaf plant response rating (velvetleaf; [4]): 40; Velvetleaf plant response rating (velvetleaf; [5]): 20; Blackgrass plant response rating (blackgrass; [4]): 30; Blackgrass plant response rating (blackgrass; [5]): 10; Wheat plant response rating (wheat; [6]): 100; Wheat plant response rating (wheat; [4]): 20; Wheat plant response rating (wheat; [5]): 10; Rice plant response rating (rice): 60; Sedge, Umbrella plant response rating [2]: 80; Ducksalad plant response rating (ducksalad): 70; Barnyardgrass plant response rating (barnyardgrass [3]): 80 |
